Reference: patent US20260274892A1, “MACROCYCLIC BROAD SPECTRUM ANTIBIOTICS” (RQx Pharmaceuticals, Inc., priority 2017, published 2026)

Test system: Escherichia coli ATCC 25922
Experiment: Minimum inhibitory concentration (MIC), CLSI broth micro-dilution, E. coli
Format: cell-based
Conditions: Escherichia coli
In short: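 Antibacterial potency is measured as MIC by the CLSI broth dilution method. Bacteria at OD600 0.0005 in Tween-80-supplemented cation-adjusted Mueller Hinton broth face ten twofold compound dilutions for 22 h at 35° C.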

[1] = ATCC25922, 22 h, Table 6, cation adjusted Mueller Hinton Broth + 0.002% Tween-80, 35° C.
[2] = ATCC25922, 22 h, Table 7, cation adjusted Mueller Hinton Broth + 0.002% Tween-80, 35° C.

SMILES | MIC [1] [µM] | MIC [2] [µM] | further results
Cc1nc(-c2ccc(C(C)(C)C)cc2)c(C(F)(F)F)cc1C(=O)N[C@@H](CCN)C(=O)N(C)[C@@H]1C(=O)N[C@@H](C)C(=O)N[C@H](C(=O)NCC#N)Cc2ccc(OCCN)c(c2)-c2cc1ccc2OCCN (racemic) [Compound 537, rac-(8S,11S,14S)-3,18-bis(2-aminoethoxy)-N-(cyanomethyl)-11-methyl-14-[methyl-[rac-(2S)-4-amino-2-[[6-(4-tert-butylphenyl)-2-methyl-5-(trifluoromethyl)pyridine-3-carbonyl]amino]butanoyl]amino]-10,13-dioxo-9,12-diazatricyclo[13.3.1.12,6]icosa-1(18),2(20),3,5,15(19),16-hexaene-8-carboxamide] | 0.25 | – | –
Cc1nc(-c2ccc(CC(C)(C)C)cc2)ncc1C(=O)N[C@@H](CCN)C(=O)N(C)[C@@H]1C(=O)N[C@@H](C)C(=O)N[C@H](C(=O)NCC#N)Cc2ccc(OCCN)c(c2)-c2cc1ccc2OCCN (racemic) [Compound 226, rac-(8S,11S,14S)-3,18-bis(2-aminoethoxy)-N-(cyanomethyl)-11-methyl-14-[methyl-[rac-(2S)-4-amino-2-[[2-[4-(2,2-dimethylpropyl)phenyl]-4-methyl-pyrimidine-5-carbonyl]amino]butanoyl]amino]-10,13-dioxo-9,12-diazatricyclo[13.3.1.12,6]icosa-1(18),2(20),3,5,15(19),16-hexaene-8-carboxamide] | – | – | MIC (ATCC25922, Table 6, cation adjusted Mueller Hinton Broth + 0.002% Tween-80, 35° C., 22 hours): 0.099 µM
Cc1nc(-c2ccc(C(C)(C)C)cc2)nc(C)c1C(=O)N[C@@H](CCN)C(=O)N(C)[C@@H]1C(=O)N[C@@H](C)C(=O)N[C@H](C(=O)NCC#N)Cc2ccc(OC[C@H](O)CN)c(c2)-c2cc1cc(OCCN)c2O (racemic) [Compound 587, rac-(8S,11S,14S)-17-(2-aminoethoxy)-N-(cyanomethyl)-18-hydroxy-11-methyl-14-[methyl-[rac-(2S)-4-amino-2-[[2-(4-tert-butylphenyl)-4,6-dimethyl-pyrimidine-5-carbonyl]amino]butanoyl]amino]-10,13-dioxo-3-[rac-(2R)-3-amino-2-hydroxy-propoxy]-9,12-diazatricyclo[13.3.1.12,6]icosa-1(18),2(20),3,5,15(19),16-hexaene-8-carboxamide] | – | 0.094 | –
Cc1nc(-c2ccc(OC3CCCCC3)cc2)cc(N)c1C(=O)N[C@@H](CCN)C(=O)N(C)[C@@H]1C(=O)N[C@@H](C)C(=O)N[C@H](C(=O)NCC#N)Cc2ccc(OCCN)c(c2)-c2cc1ccc2OCCN (racemic) [Compound 544, rac-(8S,11S,14S)-3,18-bis(2-aminoethoxy)-N-(cyanomethyl)-11-methyl-14-[methyl-[rac-(2S)-4-amino-2-[[4-amino-6-[4-(cyclohexoxy)phenyl]-2-methyl-pyridine-3-carbonyl]amino]butanoyl]amino]-10,13-dioxo-9,12-diazatricyclo[13.3.1.12,6]icosa-1(18),2(20),3,5,15(19),16-hexaene-8-carboxamide] | 0.13 | – | –
Cc1nc(-c2ccc(OCCC(C)(C)C)cc2)cc(N)c1C(=O)N[C@@H](CCN)C(=O)N(C)[C@@H]1C(=O)N[C@@H](C)C(=O)N[C@H](C(=O)NCC#N)Cc2ccc(OCCN)c(c2)-c2cc1ccc2OCCN (racemic) [Compound 538, rac-(8S,11S,14S)-3,18-bis(2-aminoethoxy)-N-(cyanomethyl)-11-methyl-14-[methyl-[rac-(2S)-4-amino-2-[[4-amino-6-[4-(3,3-dimethylbutoxy)phenyl]-2-methyl-pyridine-3-carbonyl]amino]butanoyl]amino]-10,13-dioxo-9,12-diazatricyclo[13.3.1.12,6]icosa-1(18),2(20),3,5,15(19),16-hexaene-8-carboxamide] | 0.063 | – | –
Cc1nc(-c2ccc(OC3CCCCC3)cc2)nc(C)c1C(=O)N[C@@H](CCN)C(=O)N[C@@H]1C(=O)N[C@@H](C)C(=O)N[C@H](C(=O)NCC#N)Cc2ccc(OCCN)c(c2)-c2cc1ccc2OCCN (racemic) [Compound 519, rac-(8S,11S,14S)-3,18-bis(2-aminoethoxy)-N-(cyanomethyl)-11-methyl-10,13-dioxo-14-[[rac-(2S)-4-amino-2-[[2-[4-(cyclohexoxy)phenyl]-4,6-dimethyl-pyrimidine-5-carbonyl]amino]butanoyl]amino]-9,12-diazatricyclo[13.3.1.12,6]icosa-1(18),2(20),3,5,15(19),16-hexaene-8-carboxamide] | 0.13 | – | –

Continued, in another order:

MIC [1] [µM] | MIC [2] [µM] | SMILES | further results
– | 0.5 | Cc1nc(-c2ccc(C(C)(C)C)cc2)nc(C)c1C(=O)N[C@@H](CCN)C(=O)N(C)[C@@H]1C(=O)N[C@@H](C)C(=O)N[C@H](C(=O)NCC#N)Cc2ccc(O)c(c2)-c2cc1cc(OCCN)c2O [Compound 632, (8S,11S,14S)-14-[[(2S)-4-amino-2-[[2-(4-tert-butylphenyl)-4,6-dimethyl-pyrimidine-5-carbonyl]amino]butanoyl]-methyl-amino]-17-(2-aminoethoxy)-N-(cyanomethyl)-3,18-dihydroxy-11-methyl-10,13-dioxo-9,12-diazatricyclo[13.3.1.12,6]icosa-1(18),2(20),3,5,15(19),16-hexaene-8-carboxamide] | –
– | 0.38 | Cc1nc(-c2ccc(C(C)(C)C)cc2)nc(C)c1C(=O)N[C@@H](CCN)C(=O)N(C)[C@@H]1C(=O)N[C@@H](C)C(=O)N[C@H](C(=O)NCC#N)Cc2ccc(O)c(c2)-c2cc1ccc2OC1CCNCC1 (racemic) [Compound 608, rac-(8S,11S,14S)-N-(cyanomethyl)-3-hydroxy-11-methyl-14-[methyl-[rac-(2S)-4-amino-2-[[2-(4-tert-butylphenyl)-4,6-dimethyl-pyrimidine-5-carbonyl]amino]butanoyl]amino]-10,13-dioxo-18-(4-piperidyloxy)-9,12-diazatricyclo[13.3.1.12,6]icosa-1(18),2(20),3,5,15(19),16-hexaene-8-carboxamide] | –
– | 0.5 | Cc1nc(-c2ccc(C(C)(C)C)cc2)nc(C)c1C(=O)N[C@@H](CCN)C(=O)N(C)[C@@H]1C(=O)N[C@@H](C)C(=O)N[C@H](C(=O)NCC#N)Cc2ccc(O)c(c2)-c2cc1ccc2OCCNCCN (racemic) [Compound 601, rac-(8S,11S,14S)-18-[2-(2-aminoethylamino)ethoxy]-N-(cyanomethyl)-3-hydroxy-11-methyl-14-[methyl-[rac-(2S)-4-amino-2-[[2-(4-tert-butylphenyl)-4,6-dimethyl-pyrimidine-5-carbonyl]amino]butanoyl]amino]-10,13-dioxo-9,12-diazatricyclo[13.3.1.12,6]icosa-1(18),2(20),3,5,15(19),16-hexaene-8-carboxamide] | –
– | 0.094 | Cc1nc(-c2ccc(C(C)(C)C)cc2)nc(C)c1C(=O)N[C@@H](CCN)C(=O)N(C)[C@@H]1C(=O)N[C@@H](C)C(=O)N[C@H](C(=O)NCC#N)Cc2ccc(OCCN)c(c2)-c2cc1cc(OC[C@H](O)CN)c2O (racemic) [Compound 588, rac-(8S,11S,14S)-3-(2-aminoethoxy)-N-(cyanomethyl)-18-hydroxy-11-methyl-14-[methyl-[rac-(2S)-4-amino-2-[[2-(4-tert-butylphenyl)-4,6-dimethyl-pyrimidine-5-carbonyl]amino]butanoyl]amino]-10,13-dioxo-17-[rac-(2R)-3-amino-2-hydroxy-propoxy]-9,12-diazatricyclo[13.3.1.12,6]icosa-1(18),2(20),3,5,15(19),16-hexaene-8-carboxamide] | –
